Data on one compound can be found in patent US20240366648A1, “NAD-AUGMENTATION THERAPY FOR PARKINSON'S DISEASE” (Vestlandets Innovasjonsselskap AS (VIS), priority 2021, published 2024).

In one series the test system is NAD metabolome in CSF. In words: CSF metabolomics (LC-MS). The class given is in vivo, human. The note with it: all NR-recipients; oral NR 1000 mg/day, 30 days. As for the experimental part: Biological material was collected at both visits, following a minimum 6-hour fasting and within 6 hours after study drug intake for visit 2. Sampling included whole blood, serum, peripheral blood mononuclear cells (PBMCs), cerebrospinal fluid (CSF) and muscle biopsy. Lumbar puncture was performed according to standard clinical procedures to collect 10 ml CSF. Needle biopsy of the vastus lateralis muscle was performed using a Bard Magnum biopsy gun (BD©, United States) and 12G×10 cm biopsy needles. Muscle biopsies were immediately dissected to remove any non-muscle tissue (e.g., fat or fascia) and snap-frozen in liquid nitrogen.
The extraction of metabolites from CSF samples was carried out as follows: 400 μl of each sample were mixed with 1600 μl of ice-cold UHPLC grade methanol. […] Recovery rate was tested for several relevant nucleotides and determined to be 93-96%, depending on the nucleotide.
Metabolite analysis was conducted using a Dionex UltiMate 3000 instrument coupled with an electrospray ionization (ESI) QExactive mass spectrometer (Thermo Scientific). […] Mass spectra were recorded using targeted single ion monitoring with an isolation window of 10 m/z with automatic gain control set to a target of […] and a maximum accumulation time of 300 ms. […] Absolute concentrations were calculated by external calibration curves using pure standards. […]

The subject of the next series is total NAD in PBMCs. In words: NAD measurement in PBMCs, NADMed method. In kind it is in vivo, human. An excerpt:
In addition to these analyses, we measured NAD levels in patient PBMC using a different approach (NADMed method). […] However, the trend was clear and convincing.
FIG. 16: NAD measurement in PBMCs from the study cohort, using the NADMed method.

Another series has as its system healthy individuals. As to conditions: cited from earlier work.
Another series has as its system yeast. The note with it: Belenky et al. 2007; cited from earlier work.

Take `NC(=O)c1ccc[n+]([C@@H]2O[C@H](CO)[C@@H](O)[C@H]2O)c1` [NR, nicotinamide riboside]: in the series on NAD metabolome in CSF, the “CSF Me-2-PY levels” value is recorded as “increase”. In addition, the “NAD levels in PBMC, between visits” value in the series with total NAD in PBMCs (NR group, did not reach statistical significance in paired t-test) was “increase”. Moreover, the “between visit change in PBMC NAD levels, NR vs placebo group” value with total NAD in PBMCs (p=0.0256) is recorded as “significantly higher increase”. The “oral bioavailability in humans” value with healthy individuals (Trammell et al. 2016) is on record as “good oral bioavailability”. For the same compound, the “total levels of NAD and related metabolites in blood and muscle” value with healthy individuals (healthy individuals, oral 1000 mg NR daily) is listed as “substantially elevates”. In addition, the lifespan in yeast entry with yeast is on record as “extends lifespan”.
